According to patent US4959368A, “Therapeutic agent for neurological diseases” (Mitsui Petrochemical Industries Ltd., priority 1986, dated 1990):

Assays:
[1] = tested on: human neuroblastoma cell line GOTO; experiment: Activity on neuroblastoma cell line GOTO (cell number, number and length of neurites); type: cell-based
Procedure, shortened: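 GOTO cells were cultured 1–2 days at 37 °C, 5% CO2, then switched to serum-free RPMI/MEM (1:1) with compounds in PBS at various concentrations for 24 h. Living cells were counted by erythrosine exclusion (3–6 dishes); neurite number and length per cell were measured from photographs.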

[2] = tested on: mouse neuroblastoma cell line neuro-2a; experiment: Activity on neuro-2a, cells with outgrown neurites; type: cell-based
Procedure, shortened: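 Mouse neuro-2a cells in DMEM with FCS exposed to compounds for 24 h (up to 6 concentrations, triplicate runs), glutaraldehyde-fixed and methylene blue-stained. Proportion of cells bearing a neurite at least twice the cell's long diameter counted microscopically over ≥200 cells.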

mice = experiment: Acute toxicity, mouse; type: in vivo; conditions: 24 hours
Protocol: (§1) The acute toxicity of the compounds of the invention was examined by the following method.
(§2) Male ddy-strain 5-week old mice and male Wistar-strain 8 week old rats, five per group, were used as experimental animals. Each of the compounds was dissolved in saline and administered perorally, and the toxicity of the compound was assessed 24 hours after the administration.

Acute toxicity, rat = type: in vivo; conditions: in vivo, po, Table 7, p.o., read-out: Presumed LD50
Protocol: as §1, §2

rats = experiment: Acute toxicity, rat; type: in vivo; conditions: Table 7, 1700 mg/kg p.o., 24 hours
Protocol: as §1, §2

[3] = tested on: mouse neuroblastoma cell line neuro-2a; experiment: Activity on cell line neuro-2a (simple method); type: cell-based
Protocol: The biological activities in vitro of the compounds of formula (I) on cells of the nervous system were tested. The cells tested were human neuroblastoma cell line GOTO [see Sekiguchi, M., Oota, T., Sakakibara, K., Inui, N. & Fujii, G., Japan. J. Exp. Med., 49, 67-83 (1979)], and neuroblastoma cell line NB-1 [see Miyake, S., Shimo, Y., Kitamura, T., Nojyo, Y., Nakamura, T., Imkashuku, S. and Abe, T., The Autonomic Nervous System, 10, 115-120 (1973)], and mouse neuroblastoma cell line neuro-2a (Dainippon Pharmaceutical Co., Ltd.) which have been established as the cells of the nervous system. The above neuve cells were grown in an incubator at 37° C. in the presence of 5% carbon dioxide gas exponentially, and then cultivated for a certain period of time together with the compounds of formula (I). […]
(§3) As a simple method of evaluation, the number of cells have neurites with a length equal to, or larger than, the long diameter of the cell was divided by the total number of cells.

[4] = tested on: human neuroblastoma cell line GOTO; experiment: Activity on cell line GOTO (simple method); type: cell-based; conditions: 10 μg/ml, control 8.4
Protocol: The biological activities in vitro of the compounds of formula (I) on cells of the nervous system were tested. The cells tested were human neuroblastoma cell line GOTO [see Sekiguchi, M., Oota, T., Sakakibara, K., Inui, N. & Fujii, G., Japan. J. Exp. Med., 49, 67-83 (1979)], and neuroblastoma cell line NB-1 [see Miyake, S., Shimo, Y., Kitamura, T., Nojyo, Y., Nakamura, T., Imkashuku, S. and Abe, T., The Autonomic Nervous System, 10, 115-120 (1973)], and mouse neuroblastoma cell line neuro-2a (Dainippon Pharmaceutical Co., Ltd.) which have been established as the cells of the nervous system. The above neuve cells were grown in an incubator at 37° C. in the presence of 5% carbon dioxide gas exponentially, and then cultivated for a certain period of time together with the compounds of formula (I).
A culture medium [composed of 45% of RPMI 1640 medium, 45% modified Eagle's medium (MEM) and 10% of fetal calf serum (FCS) and containing penicillin G sodium (100 units/ml) and streptomycin sulfate (100 microgram/ml)] containing neurobalstoma cell line GOTO in the logarithmic growth period was poured in an amount of 2 ml each into polystyrene dishes (35 mm; made by Corning Co.) so that the cell concentration was 2 to 6×10^4 cells per dish, and the cells were cultured for 1 to 2 days in a carbon dioxide gas incubator containing 5% of carbon dioxide gas in air at 37° C. Then, the culture fluid was removed, and 2 ml of a fresh serum-free culture fluid (consisting of 50% of RPMI medium and 50% of MEM medium and containing penicillin G sodium and streptomycin sulfate in the same amounts as above) was added. At the same time, a presterilized PBS solution (phosphate buffered saline) of each of the test compounds in various concentrations was added to each of the dishes. After culturing for 24 hours, the number of living cells was counted. Furthermore, the culture was photographed, and from the photos, the number and length of neurites per cell were measured. The numer of living cells was counted for 3 to 6 dishes by resistance to staining with erythrosine dye. The number and length of the neurites were measured with regard to 6 photos (more than 200 cells per photo).
as §3

[5] = Table 1, Run No. 6 by footnote, 1 μg/ml, control 42.48 ± 19.64, all *P <0.01
[6] = Table 1, second control group (Run No. 6 by footnote), 1 μg/ml, control 1.79 ± 0.80
[7] = Table 2 neuro-2a Run No. 2, 1 μg/ml, control 7.9

## CCN1Cc2nc(N3CCNCC3)ncc2C1=O [Compound 616]
[1]; [5]
  Length of neurites (mean ± S.D.): 56.68 ± 23.36 μm/cell
[1]; Table 1, Run No. 6 by footnote, 10 μg/ml, control 1.79 ± 0.80
  Number of neurites/cell (mean ± S.D.): 2.13 ± 0.91 neurites/cell
[1]; Table 1, Run No. 6 by footnote, 10 μg/ml, control 42.48 ± 19.64, all *P <0.01
  Length of neurites (mean ± S.D.): 57.96 ± 27.96 μm/cell
[1]; [6]
  Number of neurites/cell (mean ± S.D.): 2.04 ± 0.91 neurites/cell
[2]; Table 3 Run No. 6, 0.3 mM, control 4.4 ± 0.9
  Cells having neurites with a length at least twice the long diameter of cell/total number of cells: 10.6 ± 1.5%
[2]; Table 3 Run No. 6, 1 mM, control 4.4 ± 0.9
  Cells having neurites with a length at least twice the long diameter of cell/total number of cells: 10.3 ± 1.4%
mice; Table 7, 1000 mg/kg p.o.
  Number of dead animals/number of test animals: 0/5
mice; Table 7, 1700 mg/kg p.o.
  Number of dead animals/number of test animals: 0/5
mice; Table 7, 3000 mg/kg p.o.
  Number of dead animals/number of test animals: 4/5
Acute toxicity, rat
  LD50 at 24 h: > 1700 mg/kg
rats
  Number of dead animals/number of test animals: 0/5
[3]; [7]
  Average of the proportions: 15.79%
[3]; Table 2 neuro-2a Run No. 2, 10 μg/ml, control 7.9
  Average of the proportions: 18.40%

## CC(C)Nc1ncccn1.O=P(O)(O)O [Isaxonine, 2-isopropylaminopyrimidine ortho-phosphate, reference compound]
[1]; [5]
  Length of neurites (mean ± S.D.): 58.20 ± 25.40 μm/cell
[1]; Table 1, Run No. 7 by footnote, 1 μg/ml, control 42.20 ± 17.75, all *P <0.01
  Length of neurites (mean ± S.D.): 57.06 ± 28.78 μm/cell
[1]; Table 1, last control group (Run No. 7 by footnote), 1 μg/ml, control 1.77 ± 0.68
  Number of neurites/cell (mean ± S.D.): 1.91 ± 0.56 neurites/cell
[1]; [6]
  Number of neurites/cell (mean ± S.D.): 2.00 ± 0.86 neurites/cell
[1]; Table 1 Run No. 1, 1 μg/ml, control 2.09 ± 0.61
  Number of neurites/cell (mean ± S.D.): 2.18 ± 0.77 neurites/cell
[1]; Table 1 Run No. 1, 1 μg/ml, control 14.34 ± 0.72
  Number of cells (mean ± S.E.): 17.63 ± 2.80 × 10^4 /dish
[1]; Table 1 Run No. 1, 1 μg/ml, control 70.10 ± 43.03
  Length of neurites (mean ± S.D.): 87.86 ± 56.03 μm/cell
[1]; Table 1 Run No. 1, 10 μg/ml, control 2.09 ± 0.61
  Number of neurites/cell (mean ± S.D.): 1.99 ± 0.51 neurites/cell
[1]; Table 1 Run No. 1, 10 μg/ml, control 14.34 ± 0.72
  Number of cells (mean ± S.E.): 19.18 ± 0.67 × 10^4 /dish
[1]; Table 1 Run No. 1, 10 μg/ml, control 70.10 ± 43.03
  Length of neurites (mean ± S.D.): 82.87 ± 50.70 μm/cell
[1]; Table 1 Run No. 2, 1 μg/ml, control 2.06 ± 0.60
  Number of neurites/cell (mean ± S.D.): 2.09 ± 0.66 neurites/cell
[1]; Table 1 Run No. 2, 1 μg/ml, control 12.30 ± 1.48
  Number of cells (mean ± S.E.): 14.89 ± 1.35 × 10^4 /dish
[1]; Table 1 Run No. 2, 1 μg/ml, control 55.00 ± 37.26
  Length of neurites (mean ± S.D.): 66.01 ± 40.21 μm/cell
[1]; Table 1 Run No. 3, 1 μg/ml, control 1.94 ± 0.69, all *P <0.01
  Number of neurites/cell (mean ± S.D.): 2.31 ± 0.86 neurites/cell
[1]; Table 1 Run No. 3, 1 μg/ml, control 3.17
  Number of cells: 4.72 × 10^4 /dish
[1]; Table 1 Run No. 3, 1 μg/ml, control 45.13 ± 22.71, all *P <0.01
  Length of neurites (mean ± S.D.): 68.29 ± 24.83 μm/cell
[1]; Table 1 Run No. 4, 1 μg/ml, control 1.98 ± 0.74
  Number of neurites/cell (mean ± S.D.): 1.99 ± 0.70 neurites/cell
[1]; Table 1 Run No. 4, 1 μg/ml, control 5.48 ± 1.38
  Number of cells (mean ± S.E.): 9.44 ± 1.95 × 10^4 /dish
[1]; Table 1 Run No. 4, 1 μg/ml, control 54.15 ± 33.64
  Length of neurites (mean ± S.D.): 71.25 ± 40.39 μm/cell
[2]; Table 3 Run No. 3, 0.03 mM, control 3.9 ± 0.3
  Cells having neurites with a length at least twice the long diameter of cell/total number of cells: 4.7 ± 0.4%
[2]; Table 3 Run No. 3, 0.1 mM, control 3.9 ± 0.3
  Cells having neurites with a length at least twice the long diameter of cell/total number of cells: 6.8 ± 1.2%
[2]; Table 3 Run No. 3, 1 mM, control 3.9 ± 0.3
  Cells having neurites with a length at least twice the long diameter of cell/total number of cells: 7.0 ± 0.8%
[2]; Table 3 Run No. 4, 1 mM, control 3.1 ± 0.2
  Cells having neurites with a length at least twice the long diameter of cell/total number of cells: 5.7 ± 1.2%
[2]; Table 3 Run No. 4, 3 mM, control 3.1 ± 0.2
  Cells having neurites with a length at least twice the long diameter of cell/total number of cells: 13.6 ± 2.3%
[2]; Table 3 Run No. 4, 10 mM, control 3.1 ± 0.2
  Cells having neurites with a length at least twice the long diameter of cell/total number of cells: 34.4 ± 0.6%
[2]; Table 3 Run No. 6, 10 mM, control 4.4 ± 0.9
  Cells having neurites with a length at least twice the long diameter of cell/total number of cells: 29.9 ± 0.9%
[2]; Table 3 Run No. 7, 10 mM, control 2.5 ± 0.7
  Cells having neurites with a length at least twice the long diameter of cell/total number of cells: 24.9 ± 1.0%
[2]; Table 3 Run No. 8, 10 mM, control 3.7 ± 0.4
  Cells having neurites with a length at least twice the long diameter of cell/total number of cells: 28.2 ± 1.6%
[2]; Table 3 second Run No. 5, 1 mM, control 4.5 ± 0.3
  Cells having neurites with a length at least twice the long diameter of cell/total number of cells: 6.8 ± 2.2%
[2]; Table 3 second Run No. 5, 10 mM, control 4.5 ± 0.3
  Cells having neurites with a length at least twice the long diameter of cell/total number of cells: 27.0 ± 3.4%
[4]; Table 2 GOTO Run No. 1
  Average of the proportions: 12.58%
[4]; Table 2 GOTO Run No. 2
  Average of the proportions: 12.58%
[3]; Table 2 neuro-2a Run No. 1, 1 μg/ml, control 7.9
  Average of the proportions: 12.15%
[3]; [7]
  Average of the proportions: 12.15%
[3]; Table 2 neuro-2a Run No. 3, 0.1 μg/ml, control 2.0
  Average of the proportions: 9.1%
[3]; Table 2 neuro-2a Run No. 3, 1 μg/ml, control 2.0
  Average of the proportions: 9.1%
